In ChEMBL document CHEMBL4613236, “Magnoflorine from Coptis chinese has the potential to treat DNCB-induced Atopic dermatits by inhibiting apoptosis of keratinocyte” (Bioorg Med Chem, 2020):
The source made the active and inactive calls. No cut-off for these calls is given here.

Key:
[1] = test system: HaCaT; experiment: Inhibition of TNF-alpha/IFN-gamma-induced apoptosis in human HaCaT cells after 24 hrs by Annexin V-FITC/propidium iodide double staining-based flow cytometry; type: functional, cell-based
[2] = test system: HaCaT; experiment: Cytotoxicity against human HaCaT cells assessed as reduction in cell viability after 24 hrs by MTT assay; type: cell-based
[3] = test system: HaCaT; experiment: Inhibition of TNF-alpha/IFN-gamma-induced apoptosis in human HaCaT cells assessed as apoptotic rate at 1500 ug/ml after 24 hrs by Annexin V-FITC/propidium iodide double staining-based flow cytometry (reference value: 42.9%); type: functional; set-up: scale not given: the % may be the effect or the level left
[4] = test system: Mus musculus; experiment: Protection against DNCB-induced skin inflammation in BALB/c mouse model of atopic dermatitis assessed as reduction in skin erythema at 0.1 g/ml administered topically once daily for 16 days measured post last dose; type: functional, organism-based
[5] = test system: Mus musculus; experiment: Protection against DNCB-induced skin inflammation in BALB/c mouse model of atopic dermatitis assessed as reduction in skin erosion at 0.1 g/ml administered topically once daily for 16 days measured post last dose; type: functional, organism-based
[6] = test system: Mus musculus; experiment: Protection against DNCB-induced skin inflammation in BALB/c mouse model of atopic dermatitis assessed as reduction in skin dryness at 0.1 g/ml administered topically once daily for 16 days measured post last dose; type: functional, organism-based
[7] = test system: Mus musculus; experiment: Protection against DNCB-induced skin inflammation in BALB/c mouse model of atopic dermatitis assessed as number of caspase-3 positive cells at 0.1 g/ml administered topically once daily for 16 days measured post last dose by […] based light microscopic analysis (reference value: 1054 +/- 74.9); type: functional
[8] = test system: HaCaT; experiment: Inhibition of TNFalpha/IFN-gamma-induced apoptosis in human HaCaT cells assessed as change in mitochondrial membrane potential at 500 ug/ml after 24 hrs by DiOC6 probe based flow cytometric analysis (reference value: 15.36 +/- 0.76); type: functional
[9] = test system: HaCaT; experiment: Inhibition of TNFalpha/IFN-gamma-induced apoptosis in human HaCaT cells assessed as increase in mitochondrial membrane potential after 24 hrs by DiOC6 probe based flow cytometric analysis; type: functional, cell-based
[10] = test system: HaCaT; experiment: Inhibition of TNFalpha/IFN-gamma-induced apoptosis in human HaCaT cells assessed as rounded nuclei with sharp edges at 500 to 1500 ug/ml after 24 hrs by Hoechst staining based fluorescence microscopic analysis; type: functional, cell-based
[11] = test system: HaCaT; experiment: Inhibition of TNFalpha/IFN-gamma-induced apoptosis in human HaCaT cells assessed as increase in Bid expression at 500 ug/ml after 24 hrs by Western blot analysis; type: functional, cell-based
[12] = test system: HaCaT; experiment: Inhibition of TNFalpha/IFN-gamma-induced apoptosis in human HaCaT cells assessed as increase in cytochrome C expression at 500 ug/ml after 24 hrs by Western blot analysis; type: functional, cell-based
[13] = test system: HaCaT; experiment: Inhibition of TNFalpha/IFN-gamma-induced apoptosis in human HaCaT cells assessed as increase in caspase 3 expression at 500 ug/ml after 24 hrs by Western blot analysis; type: functional, cell-based
[14] = test system: HaCaT; experiment: Inhibition of TNFalpha/IFN-gamma-induced apoptosis in human HaCaT cells assessed as increase in caspase 7 expression at 500 ug/ml after 24 hrs by Western blot analysis; type: functional, cell-based
[15] = test system: HaCaT; experiment: Inhibition of TNFalpha/IFN-gamma-induced apoptosis in human HaCaT cells assessed as increase in caspase 8 expression at 500 ug/ml after 24 hrs by Western blot analysis; type: functional, cell-based
[16] = test system: HaCaT; experiment: Inhibition of TNFalpha/IFN-gamma-induced apoptosis in human HaCaT cells assessed as increase in caspase 9 expression at 500 ug/ml after 24 hrs by Western blot analysis; type: functional, cell-based
[17] = test system: HaCaT; experiment: Inhibition of TNFalpha/IFN-gamma-induced apoptosis in human HaCaT cells assessed as increase in cathepsin B expression at 500 ug/ml after 24 hrs by Western blot analysis; type: functional, cell-based
[18] = Toxicity in DNCB-induced skin inflammation in BALB/c mouse model of atopic dermatitis assessed as effect on organs at 0.1 g/ml administered topically once daily for 16 days; settings: in vivo, topical_or_ocular, 384 h
[19] = test system: Mus musculus; experiment: Protection against DNCB-induced skin inflammation in BALB/c mouse model of atopic dermatitis assessed as reduction in IgE level at 0.1 g/ml administered topically once daily for 16 days measured post last dose by ELISA; type: functional, organism-based
[20] = test system: Mus musculus; experiment: Protection against DNCB-induced skin inflammation in BALB/c mouse model of atopic dermatitis assessed as reduction in IL4 level at 0.1 g/ml administered topically once daily for 16 days measured post last dose by ELISA; type: functional, organism-based
[21] = test system: Mus musculus; experiment: Protection against DNCB-induced skin inflammation in BALB/c mouse model of atopic dermatitis assessed as reduction in spleen index at 0.1 g/ml administered topically once daily for 16 days measured post last dose; type: functional, organism-based
[22] = test system: Mus musculus; experiment: Protection against DNCB-induced skin inflammation in BALB/c mouse model of atopic dermatitis assessed as reduction in dermal edema at 0.1 g/ml administered topically once daily for 16 days measured post last dose; type: functional, organism-based
[23] = test system: Mus musculus; experiment: Protection against DNCB-induced skin inflammation in BALB/c mouse model of atopic dermatitis assessed as reduction in hair follicle disappearance at 0.1 g/ml administered topically once daily for 16 days measured post last dose; type: functional, organism-based
[24] = test system: HaCaT; experiment: Induction of apoptosis in human HaCaT cells at 500 to 1500 ug/ml after 24 hrs by Hoechst staining based fluorescence microscopic analysis; type: cell-based

COc1cc2c(cc1OC)-c1cc3ccc(OC)c(OC)c3c[n+]1CC2 [PALMITINE]
inhibition [1]: inactive
Activity [2]: Toxic

COc1cc2c(cc1OC)-c1cc3ccc4c(c3c[n+]1CC2)OCO4
inhibition [1]: inactive
Activity [2]: Toxic

COc1cc2c(cc1O)-c1cc3ccc(OC)c(OC)c3c[n+]1CC2 [COLUMBAMINE]
inhibition [1]: inactive
Activity [2]: Toxic

COc1ccc2cc3[n+](cc2c1OC)CCc1cc2c(cc1-3)OCO2 [BERBERINE]
inhibition [1]: inactive
Activity [2]: Toxic

COc1ccc2c(c1O)-c1c(O)c(OC)cc3c1[C@H](C2)[N+](C)(C)CC3 [MAGNOFLORINE]
inhibition [1]: Dose-dependent effect
Activity [3]: 22.1%
Activity [4]: Active
Activity [5]: Active
Activity [6]: Active
Activity [7]: 509.8
Activity [8]: 12.66
inhibition [9]: Dose-dependent effect
inhibition [10]: Active
inhibition [11]: Active
inhibition [12]: Active
inhibition [13]: Active
inhibition [14]: Active
inhibition [15]: Active
inhibition [16]: Active
inhibition [17]: Active
Activity [2]: Non-Toxic
Activity [18]: Non-Toxic
Activity [19]: Active
Activity [20]: Active
Activity [21]: Active
Activity [22]: Active
Activity [23]: Active
Activity [24]: Non-Toxic

COc1cc2c(cc1O)CC[n+]1cc3c(OC)c(OC)ccc3cc1-2 [JATRORRHIZINE]
inhibition [1]: inactive
Activity [2]: Toxic

c1c2c(cc3c1OCO3)-c1cc3ccc4c(c3c[n+]1CC2)OCO4 [COPTISINE]
inhibition [1]: inactive
Activity [2]: Toxic
